Test results taken from US12617790B2, “Mitragynine analogs and uses thereof” (Memorial Sloan-Kettering Cancer Center, priority 2015, dated 2026).

Tests used:
KOR-1 [1] = biological target: T1, KOR-1 (Mus musculus, UniProt P33534); assay: Competition binding against 125I-IBNtxA in KOR-1/CHO membranes
T1 construct: expressed in transfected cells; host or cells: CHO

CD1 mice [2] = assay: Radiant heat tail flick analgesia, icv, CD1 mice; format: in vivo, mouse; conditions: ED50, cumulative dose-response, tail flick 15 min after icv dose
mice [3] = assay: Physical dependence, naloxone-precipitated jumping; conditions: VM1502 2x daily 2x ED50, challenge on days 5, 22, 29; 15 min count
CD1 male mice [4] = assay: Tail flick antinociception, oral by gavage, CD1 male mice; format: in vivo; conditions: Mus musculus, orally by gavage
KOR-1 [5] = biological target: T1, KOR-1; assay: [35S]GTPγS functional assay, KOR-1 transfected cell membranes; format: biochemical
CD1 male mice [6] = assay: Tolerance study, chronic twice daily dosing, tail flick; conditions: for ED50: Mus musculus, sc
CD1 mice [7] = assay: Reversal of tail flick antinociception by selective opioid antagonists, CD1 mice; format: in vivo, mouse; conditions: VM1501 1.0 mg/kg sc, VM1502 1.5 mg/kg sc
MOR-1 [8] = biological target: T2, MOR-1 (Mus musculus, UniProt P42866); assay: [35S]GTPγS functional assay, MOR-1 transfected cell membranes; format: biochemical
T2 construct: expressed in transfected cells; host or cells: CHO

DOR-1 [9] = biological target: T3, DOR-1 (Mus musculus, UniProt P32300); assay: [35S]GTPγS functional assay, DOR-1 transfected cell membranes; format: biochemical
T3 construct: expressed in transfected cells; host or cells: CHO

CD1 mice [10] = assay: Radiant heat tail flick analgesia, sc, CD1 mice; format: in vivo; conditions: Mus musculus, 0.25 h, ED50, cumulative dose-response, tail flick 15 min after sc dose
mice [11] = assay: Conditioned place preference / aversion; conditions: VM1502 1.3 and 3.2 mg/kg/d, 2 days conditioning
DOR-1 [12] = biological target: T3, DOR-1; assay: Competition binding against 125I-IBNtxA in DOR-1/CHO membranes
mice [13] = assay: Antisense oligodeoxynucleotide downregulation, tail flick antinociception; format: in vivo, mouse; conditions: antisense icv days 1, 3, 5, test day 6; VM1501 1.0 mg/kg sc, VM1502 1.5 mg/kg sc
CD1 mice [14] = assay: Respiratory depression assessment (MouseOx pulse oximeter breath rate)
MOR-1 [15] = biological target: T2, MOR-1; assay: Competition binding against 125I-IBNtxA in MOR-1/CHO membranes
rats = assay: Tail flick analgesia, sc, rats; format: in vivo; conditions: Rattus norvegicus, 0.25 h, rats (n=3), 15 mins, cumulative dosing
mice [16] = assay: Gastrointestinal motility assay (charcoal meal transit); conditions: FIG. 12C: VM1502 1.5 and 4 mg/kg, 30 min

SMILES: CC[C@@H]1CN2CC[C@]3(Nc4cccc(OC)c4C3=O)C2C[C@@H]1/C(=C\OC)C(=O)OC (stereo partly drawn) [VM1502, (E)-methyl 2-((1'S,6'S,7'S)-6′-ethyl-4-methoxy-3-oxo-3′,5′,6′,7′,8′,8a′-hexahydro-2′H-spiro[indoline-2,1′-indolizine]-7′-yl)-3-methoxyacrylate]
- Ki (KOR-1 [1]): 24 nM
- Analgesia icv (CD1 mice [2]): 0.38 µg
- physical dependence: number of jumps after naloxone (1 mg/kg) (mice [3]): not significantly greater than that of mice treated with saline
- ED50 (CD1 male mice [4]): 7.5 mg/kg
- IC50 (KOR-1 [5]): 31 nM
- ED50 (CD1 male mice [6]; 0 h, read-out: analgesic ED50, naïve (day 0)): 0.63 mg/kg
- ED50 (CD1 male mice [6]; 120 h, read-out: analgesic ED50, day 5): 1.1 mg/kg
- ED50 (CD1 male mice [6]; 288 h, read-out: analgesic ED50, day 12): 1.8 mg/kg
- ED50 (CD1 male mice [6]; 528 h, read-out: analgesic ED50, day 22): 2 mg/kg
- ED50 (CD1 male mice [6]; 696 h, read-out: analgesic ED50, day 29): 4.5 mg/kg
- onset of analgesic tolerance (CD1 male mice [6]; dosed 2x daily with 2x antinociceptive ED50): very slow onset of tolerance compared with morphine
- antinociception after NTI (0.5 mg/kg sc) and norBNI (10 mg/kg sc) (CD1 mice [7]): insensitive to NTI and norBNI
- antinociception after β-FNA (40 mg/kg sc) (CD1 mice [7]): antagonized by β-FNA
- EC50 (MOR-1 [8]): 1.7 nM
- IC50 (DOR-1 [9]): 61 nM
- ED50 (CD1 mice [10]): 0.76 mg/kg
- conditioned place preference or aversion (mice [11]): did not produce conditioned place preference or aversion
- Ki (DOR-1 [12]): 3 nM
- analgesic response after antisense downregulation (mice [13]): only affected in MOR-1-downregulated mice
- respiratory rate (CD1 mice [14]; FIG. 12D, 2x antinociceptive ED50: VM1502 1.2 mg/kg sc, morphine 5 mg/kg): did not depress respiratory rate
- respiratory rate (CD1 mice [14]; FIG. 12D, 5x antinociceptive ED50: VM1502 3 mg/kg sc, morphine 10 mg/kg): showed signs of respiratory depression albeit significantly less than the equianalgesic dose of morphine
- respiratory rate (CD1 mice [14]; FIG. 14, 5x antinociceptive ED50: VM1502 3.75 mg/kg sc, VM1512 5.0 mg/kg sc, morphine 10 mg/kg): showed signs of respiratory depression albeit significantly less than the equianalgesic dose of morphine
- Ki (MOR-1 [15]): 0.8 nM
- ED50 (rats): 1.4 mg/kg
- gastrointestinal transit (mice [16]): lowered transit significantly compared with saline (P<0.05) but less than morphine at both doses
